Where two headings read alike, the source gives them in different places.
Legend:
[1] = tested on: primary cortical neurons injured by Aβ; assay: Aβ-peptide toxicity on primary cortical neurons (neuron survival, neurite network); assay type: cell-based, rat; settings: Aβ 20 μM, 24 h
Protocol: The present study used an in vitro model of Alzheimer's disease established by Callizot et al. [2013, already cited], using Aβ-peptide solution containing Aβ-oligomers and permitting to reproduce essential neuropathological features of Alzheimer's disease.
The Aβ1-42-preparation was obtained following the procedure described by Callizot et al. [2013, already cited]. Briefly, Aβ1-42 peptide was dissolved in the defined culture medium mentioned above, devoid of serum, at an initial concentration of 40 μmol/liter. This solution was gently agitated for 3 days at 37° C. in the dark and immediately used after being diluted in culture medium to the concentrations used.
On day 11 of culture, HA, CA, FA and mixtures thereof were solved and diluted in culture medium and then pre-incubated with cortical neurons 1 hour before the Aβ1-42-peptide application. Aβ1-42-preparation was then added to a final concentration of 20 μM diluted in control medium.
After 24 hours of Aβ-intoxication, the cultures were fixed and immunolabeled and the neuron survival and the neurite network length were assessed as described in the above example.

[2] = tested on: nerve/muscle co-culture injured by glutamate; assay: glutamate toxicity on nerve/muscle co-culture (NMJ area, neurite network); assay type: cell-based, human muscle, rat spinal cord explants; settings: glutamate 60 μM, 20 min
Protocol: Human muscle (promocell, Batch: 3061107) was prepared according to a previously described method from portions of a biopsy from a healthy subject (Braun et al., (1996) J. Neurol Sci. 136: 17-23). The human muscle cell line was established from dissociated cells (21 000 cells per wells), plated in gelatin-coated 0.1% (Sigma, Batch: 051M0012V) in water on 48 wells plate (greiner, Batch: E13111ME) and grows in a proliferation medium consisting of mix of 62% of MEM medium (PAN, Batch: 2761113) and 25% of M199 medium (PAN, Batch: 6720314) supplemented with glutamine 2 mM (PAN, Batch: 8150713), human insulin 10 μg/ml (PAN, Batch: 1481013), Human recombinant Epidermal growth factor 10 ng/ml (EGF, GIBCO, Batch: 1291552A), human recombinant Fibroblast growth factor basic 2 ng/ml (bFGF, PAN, Batch: H080113), foetal calf serum 10% (FCS, GIBCO, Batch: 41Q7218K) and 2% of Penicillin 10.000 U/ml and Streptomycin 10.000 μg/ml (PS, PAN, Batch: 1451013). The medium was changed every 2 days. Five days after the start of culture, immediately after satellite cell fusion, whole transverse slices of 13-day-old rat Wistar embryos (Janvier, France) spinal cords with 4 dorsal root ganglia (DRG) attached are placed on the muscle monolayer (one explant per well in the central area). DRG are necessary to achieve a good ratio of innervation. Innervated cultures were maintained in a mixed (67%/25%) medium composed of MEM and medium 199, supplemented with 5% FCS, insulin 5 μg/ml, glutamine 2 mM and 2% PS. After 24 h of co-culture, neurites were observed growing out of the spinal cord explants. These neurites made contacts with myotubes and induced the first contractions after ˜8 days. Quickly thereafter, innervated muscle fibres located in the proximity to the spinal cord explants, were virtually continuously contracting. Innervated fibres were morphologically and spatially distinct from the non-innervated ones and could easily be distinguished from them.
On day 27, co-cultures were pre-incubated 1 hour before glutamate application with test compounds (different concentrations) tested alone or in a mixture of the 3 compounds.
One hour after HA, CA or FA Compounds and mixture (HA/CA/FA) incubation, glutamate was added to a final concentration of 60 μM diluted in control medium still in presence of 3 compounds or mix of compounds for 20 min.
After 20 min injuries, co-cultures were washed and individual test compounds and mixture were added for an additional 48 h.
After 48 h, the cocultures were prepared for end points evaluation (see below).
After 48H of intoxication, cells were incubated with 500 nM α-bungarotoxin coupled with Alexa 488 (Molecular probes, Batch: 1434893) during 15 min in culture innervations medium at 37° C. to detect NMJ. After 2 washing in PBS (Pan Biotech, Batch: 7560414), cells were fixed by a solution of 4% of paraformaldehyde (Sigma Aldrich, Batch: SLBF7274V) in PBS, pH=7.3 for 20 min at room temperature.
The cells were washed 2 times in PBS and then permeabilized and non-specific sites were blocked with a solution of PBS containing 0.1% of saponin (Sigma-Aldrich, Batch: BCBJ8417V) and 1%0 FCS (Gibco, Batch: 41F0423K) for 15 min at room temperature, co-cultures were incubated with a mouse monoclonal anti-neurofilament 200 KD antibody (NF, Sigma Aldrich, Batch: 053M4756) at the dilution of 1/400 in PBS containing 1% FCS, 0.1% saponin, for 2 h at room temperature. Antibody against NF stained the axon of motor neuron. […] Nuclei of neurons were labeled by Hoechst solution, a nuclear fluorescent marker at […] in the same solution (Hoechst solution, SIGMA, batch: 011M4004V).
The NMJ mean size (area) of NMJs and the total length of neurite were assessed under the experimental conditions described above (see Combes et al., 2015). For each condition, 20 pictures per well were taken in the center area using ImageXpress (Molecular device) with 10× magnification. All images were taken under the same conditions. […]

[3] = tested on: Acetylcholinesterase (AChE)
Protocol: Test compounds alone or in association in mixture were solved at different concentrations in medium and then pre-incubated with kit of measure AchE (Promega, France).
Test compounds alone or in association in the NSP01-001-E001 prepared according to example 4 were solved at different concentrations in medium and then pre-incubated with kit of measure AchE (Promega, France).
Kit achetylcholinesterase (Abcam ref ab138871) was used. […] A 10-minutes incubation time was applied. The absorbance was assessed at 410 nm.
The activity of the AchE was evaluated versus an AchE activity standard curve.
Data were expressed in percentage of control conditions (no compound=100%). All values were expressed as mean+/−SEM (s.e.mean) (n=6 wells per condition per culture). Graphs and statistical analyses on the different conditions (ANOVA followed by PLSD Fisher's test when allowed, were performed using GraphPad Prism software version 5.0).

[4] = tested on: Alzheimer's disease patients; settings: particularly at a daily dose of 300-500 μg; cited from earlier work

## O=C(O)/C=C/c1ccc(O)c(O)c1 [CA, caffeic acid]
[1]; 500 pM and below
  neuron survival: no effect
[1]; even at lower concentrations
  neurite network: Protective effect
[1]; from 5 nM up to 5 μM
  neuron survival: significantly protect
[2]; CA added 1 h before glutamate
  neurite network (area of innervation): slight protection
[2]; CA highest dose (5 nM)
  neurite network (area of innervation): significance was observed
[2]; CA low concentrations
  NMJ area (mean size): unable to protect
[2]; only at the highest dose (5 nM)
  NMJ area (mean size): able to protect
[3]; 50 pM
  inhibition of AChE: ~8%

## COc1cc(/C=C/C(=O)O)ccc1O [FA, ferulic acid]
[1]; 10 and 100 μM
  neurite network: significant effect
[1]; whatever the concentration tested
  neuron survival: not able to protect
[2]; FA lowest and highest concentrations
  NMJ area (mean size): inactive
[2]; FA only at 100 nM
  NMJ area (mean size): able to protect
[2]; highest dose tested (10 μM)
  neurite network (area of innervation): moderate effect
[3]; 100 pM
  inhibition of AChE: ~8%

## C/C=C1\[C@H]2C=C(C)C[C@]1(N)c1ccc(=O)[nH]c1C2 [HA, huperzine A, reference compound]
[1]; HA, all concentrations
  neuron survival: not able to significantly protect
[2]; HA 100 nM
  NMJ area (mean size): significance was observed
[2]; HA 100 nM, without reaching the significance
  neurite network (area of innervation): slight neuroprotection
[2]; HA, all concentrations tested
  NMJ area (mean size): slight protective effect
  neurite network (area of innervation): no neuronal protective effect
[4]
  tolerability and benefit: well-tolerated and beneficial

From US10596166B2, “Combination composition comprising huperzine” (priority 2015, dated 2020)
